Laboratory results published in patent US12391706B2, “Multi-target tyrosine kinase inhibitor” (SHENZHEN NEPTUNUS PHARMACEUTICAL RESEARCH INSTITUTE CO., …, priority 2020, dated 2025).

test system: not listed separately; test: Solubility test (water), Chinese Pharmacopoeia 2015; type: physicochemical; conditions: 25° C.±2° C., dissolution within 30 minutes
Experimental: The series of compounds synthesized in Examples 1-24 were subjected to solubility test (water), according to the solubility test methods in Chinese Pharmacopoeia, 2015 Edition. The specific test operations and evaluation criteria are as follows: An appropriate amount (1 mg-10 mg) of finely powdered compound was weighed, placed in a certain volume of solvent at 25° C.±2° C., and shaken vigorously for 30 seconds every 5 minutes; the dissolution within 30 minutes was observed. It was considered completely dissolved if there were no visible particles or droplets of the solute. [table]

SMILES	Water solubility test Result
O=C(O)CCC(=O)OCCn1cc(-c2cc3nccc(Oc4ccc(NC(=O)C5(C(=O)Nc6ccc(F)cc6)CC5)cc4F)c3s2)cn1 [td32-4P1, 4-(2-(4-(7-(2-fluoro-4-(1-((4-fluorophenyl)carbamoyl)cyclopropane-1-carboxamide)phenoxy)thieno[3,2-b]pyridin-2-yl)-1H-pyrazolyl-1-yl)ethoxy)-4-oxobutyric acid]	F (1 g of solute is soluble in 1000~10000 mL of sovent)
CN1CCN(Cc2ccc(C(=O)OCCn3cc(-c4cc5nccc(Oc6ccc(NC(=O)C7(C(=O)Nc8ccc(F)cc8)CC7)cc6F)c5s4)cn3)cc2)CC1 [td32-4P21, 2-(4-(7-(2-fluoro-4-(1-((4-fluorophenyl)carbamoyl)cyclopropane-1-carboxamide)phenoxy)thieno[3,2-b]pyridin-2-yl)-1H-pyrazol-1-yl)ethyl 4-((methylpiperazin-1-yl)methyl) benzoate]	D (1 g of solute is soluble in 30~100 mL of sovent)
CC(N)C(=O)OCCn1cc(-c2cc3nccc(Oc4ccc(NC(=O)C5(C(=O)Nc6ccc(F)cc6)CC5)cc4F)c3s2)cn1 (centres unmarked) [td32-4P7, 2-(4-(7-(2-fluoro-4-(1-((4-fluorophenyl)carbamoyl)cyclopropane-1-carboxamide)phenoxy)thieno[3,2-b]pyridin-2-yl)-1H-pyrazolyl-1-yl)ethyl alaninate]	D (1 g of solute is soluble in 30~100 mL of sovent)
O=C(OCCn1cc(-c2cc3nccc(Oc4ccc(NC(=O)C5(C(=O)Nc6ccc(F)cc6)CC5)cc4F)c3s2)cn1)c1cccc(CN2CCOCC2)c1 [td32-4P20, 2-(4-(7-(2-fluoro-4-(1-((4-fluorophenyl)carbamoyl)cyclopropane-1-carboxamide)phenoxy)thieno[3,2-b]pyridin-2-yl)-1H-pyrazolyl-1-yl)ethyl 3-(morpholinylmethyl) benzoate]	F (1 g of solute is soluble in 1000~10000 mL of sovent)
O=C(CN1CCOCC1)OCCn1cc(-c2cc3nccc(Oc4ccc(NC(=O)C5(C(=O)Nc6ccc(F)cc6)CC5)cc4F)c3s2)cn1 [td32-4P5, 2-(4-(7-(2-fluoro-4-(1-((4-fluorophenyl)carbamoyl)cyclopropane-1-carboxamide)phenoxy)thieno[3,2-b]pyridin-2-yl)-1H-pyrazolyl-1-yl)ethyl 2-morpholine acetate]	C (1 g of solute is soluble in 10~30 mL of sovent)
NC(=O)CC(N)C(=O)OCCn1cc(-c2cc3nccc(Oc4ccc(NC(=O)C5(C(=O)Nc6ccc(F)cc6)CC5)cc4F)c3s2)cn1 (centres unmarked) [td32-4P14, 2-(4-(7-(2-fluoro-4-(1-((4-fluorophenyl)carbamoyl)cyclopropane-1-carboxamide)phenoxy)thieno[3,2-b]pyridin-2-yl)-1H-pyrazolyl-1-yl)ethyl asparaginate]	D (1 g of solute is soluble in 30~100 mL of sovent)
O=C(Nc1ccc(F)cc1)C1(C(=O)Nc2ccc(Oc3ccnc4cc(-c5cnn(CCOP(=O)(O)O)c5)sc34)c(F)c2)CC1 [td32-4P2, 2-(4-(7-(2-fluoro-4-(1-((4-fluorophenyl)carbamoyl)cyclopropane-1-carboxamide)phenoxy)thieno[3,2-b]pyridin-2-yl)-1H-pyrazolyl-1-yl)ethyl phosphate]	F (1 g of solute is soluble in 1000~10000 mL of sovent)
NC(=O)CCC(N)C(=O)OCCn1cc(-c2cc3nccc(Oc4ccc(NC(=O)C5(C(=O)Nc6ccc(F)cc6)CC5)cc4F)c3s2)cn1 (centres unmarked) [td32-4P15, 2-(4-(7-(2-fluoro-4-(1-((4-fluorophenyl)carbamoyl)cyclopropane-1-carboxamide)phenoxy)thieno[3,2-b]pyridin-2-yl)-1H-pyrazolyl-1-yl)ethyl glutaminate]	D (1 g of solute is soluble in 30~100 mL of sovent)
CCC(C)C(N)C(=O)OCCn1cc(-c2cc3nccc(Oc4ccc(NC(=O)C5(C(=O)Nc6ccc(F)cc6)CC5)cc4F)c3s2)cn1 (centres unmarked) [td32-4P9, 2-(4-(7-(2-fluoro-4-(1-(4-fluorophenyl)carbamoyl)cyclopropane-1-carboxamide)phenoxy)thieno[3,2-b]pyridin-2-yl)-1H-pyrazolyl-1-yl)ethyl isoleucinate]	D (1 g of solute is soluble in 30~100 mL of sovent)
CC(C(=O)OCCn1cc(-c2cc3nccc(Oc4ccc(NC(=O)C5(C(=O)Nc6ccc(F)cc6)CC5)cc4F)c3s2)cn1)N(C)C (centres unmarked) [td32-4P18, 2-(4-(7-(2-fluoro-4-(1-((4-fluorophenyl)carbamoyl)cyclopropane-1-carboxamide)phenoxy)thieno[3,2-b]pyridin-2-yl)-1H-pyrazolyl-1-yl)ethyl N,N-dimethyl alaninate]	D (1 g of solute is soluble in 30~100 mL of sovent)
O=C(OCCn1cc(-c2cc3nccc(Oc4ccc(NC(=O)C5(C(=O)Nc6ccc(F)cc6)CC5)cc4F)c3s2)cn1)c1cccc(CN2CCCC2)c1 [td32-4P24]	D (1 g of solute is soluble in 30~100 mL of sovent)
CN1CCN(Cc2cccc(C(=O)OCCn3cc(-c4cc5nccc(Oc6ccc(NC(=O)C7(C(=O)Nc8ccc(F)cc8)CC7)cc6F)c5s4)cn3)c2)CC1 [td32-4P22, 2-(4-(7-(2-fluoro-4-(1-((4-fluorophenyl)carbamoyl)cyclopropane-1-carboxamide)phenoxy)thieno[3,2-b]pyridin-2-yl)-1H-pyrazolyl-1-yl)ethyl 3-((methylpiperazin-1-yl)methyl) benzoate]	D (1 g of solute is soluble in 30~100 mL of sovent)
O=C(OCCn1cc(-c2cc3nccc(Oc4ccc(NC(=O)C5(C(=O)Nc6ccc(F)cc6)CC5)cc4F)c3s2)cn1)C1CCCN1 (centres unmarked) [td32-4P13, 2-(4-(7-(2-fluoro-4-(1-((4-fluorophenyl)carbamoyl)cyclopropane-1-carboxamide)phenoxy)thieno[3,2-b]pyridin-2-yl)-1H-pyrazolyl-1-yl)ethyl prolinate]	E (1 g of solute is soluble in 100~1000 mL of sovent)
NCC(=O)OCCn1cc(-c2cc3nccc(Oc4ccc(NC(=O)C5(C(=O)Nc6ccc(F)cc6)CC5)cc4F)c3s2)cn1 [td32-4P6, 2-(4-(7-(2-fluoro-4-(1-((4-fluorophenyl)carbamoyl)cyclopropane-1-carboxamide)phenoxy)thieno[3,2-b]pyridin-2-yl)-1H-pyrazolyl-1-yl)ethyl glycinate]	C (1 g of solute is soluble in 10~30 mL of sovent)
CC(C)CC(N)C(=O)OCCn1cc(-c2cc3nccc(Oc4ccc(NC(=O)C5(C(=O)Nc6ccc(F)cc6)CC5)cc4F)c3s2)cn1 (centres unmarked) [td32-4P8, 2-(4-(7-(2-fluoro-4-(1-((4-fluorophenyl)carbamoyl)cyclopropane-1-carboxamide)phenoxy)thieno[3,2-b]pyridin-2-yl)-1H-pyrazolyl-1-yl)ethyl leucinate]	E (1 g of solute is soluble in 100~1000 mL of sovent)
O=C(OCCn1cc(-c2cc3nccc(Oc4ccc(NC(=O)C5(C(=O)Nc6ccc(F)cc6)CC5)cc4F)c3s2)cn1)c1ccc(CN2CCCC2)cc1 [td32-4P23]	D (1 g of solute is soluble in 30~100 mL of sovent)
NC(Cc1ccccc1)C(=O)OCCn1cc(-c2cc3nccc(Oc4ccc(NC(=O)C5(C(=O)Nc6ccc(F)cc6)CC5)cc4F)c3s2)cn1 [td32-4P12, 2-(4-(7-(2-fluoro-4-(1-((4-fluorophenyl)carbamoyl)cyclopropane-1-carboxamide)phenoxy)thieno[3,2-b]pyridin-2-yl)-1H-pyrazolyl-1-yl)ethyl L-phenylalaninate]	F (1 g of solute is soluble in 1000~10000 mL of sovent)
COC(CNCC(=O)OCCn1cc(-c2cc3nccc(Oc4ccc(NC(=O)C5(C(=O)Nc6ccc(F)cc6)CC5)cc4F)c3s2)cn1)OC [td32-4P17, 2-(4-(7-(2-fluoro-4-(1-((4-fluorophenyl)carbamoyl)cyclopropane-1-carboxamide)phenoxy)thieno[3,2-b]pyridin-2-yl)-1H-pyrazolyl-1-yl)ethyl(2,2-dimethoxyethyl) glycinate]	E (1 g of solute is soluble in 100~1000 mL of sovent)
CSCCC(N)C(=O)OCCn1cc(-c2cc3nccc(Oc4ccc(NC(=O)C5(C(=O)Nc6ccc(F)cc6)CC5)cc4F)c3s2)cn1 (centres unmarked) [td32-4P11, 2-(4-(7-(2-fluoro-4-(1-((4-fluorophenyl)carbamoyl)cyclopropane-1-carboxamide)phenoxy)thieno[3,2-b]pyridin-2-yl)-1H-pyrazolyl-1-yl)ethyl methioninate]	E (1 g of solute is soluble in 100~1000 mL of sovent)
CCN(CC)CC(=O)OCCn1cc(-c2cc3nccc(Oc4ccc(NC(=O)C5(C(=O)Nc6ccc(F)cc6)CC5)cc4F)c3s2)cn1 [td32-4P4, 2-(4-(7-(2-fluoro-4-(1-((4-fluorophenyl)carbamoyl)cyclopropane-1-carboxamide)phenoxy)thieno[3,2-b]pyridin-2-yl)-1H-pyrazolyl-1-yl)ethyldiethyl glycinate]	C (1 g of solute is soluble in 10~30 mL of sovent)
O=C(OCCn1cc(-c2cc3nccc(Oc4ccc(NC(=O)C5(C(=O)Nc6ccc(F)cc6)CC5)cc4F)c3s2)cn1)c1ccc(CN2CCOCC2)cc1 [td32-4P19, 2-(4-(7-(2-fluoro-4-(1-((4-fluorophenyl)carbamoyl)cyclopropane-1-carboxamide)phenoxy)thieno[3,2-b]pyridin-2-yl)-1H-pyrazolyl-1-yl)ethyl 4-(morpholinylmethyl) benzoate]	F (1 g of solute is soluble in 1000~10000 mL of sovent)

test system: MKN-45 gastric cancer cells; test: Gastric cancer cell MKN45 xenograft model; type: in vivo, nude mice; conditions: oral 100 mg·kg^−1 once a day for 14 days
Description: • 1. Compounds (td32-4, td32-4P3, td32-4P6, td32-4P9, td32-4P10) were selected for in vivo activity evaluation at a single concentration. The animal model was gastric cancer cell MKN45 xenograft model.
Test method: 5×10^6 MKN-45 gastric cancer cells were inoculated under the fat pad of the right rib of nude mice, and the tumor formation was observed. Two weeks after the inoculation, the tumor-bearing mice were divided into groups and orally administered with td32-4, td32-4P3, td32-4P6, td32-4P9, and td32-4P10 at a dose of 100 mg·kg^−1, once a day for 14 days, respectively. Tumor volumes were measured with a caliper and recorded.

SMILES	tumor inhibitory effect (tumor volume)
CCC(C)C(N)C(=O)OCCn1cc(-c2cc3nccc(Oc4ccc(NC(=O)C5(C(=O)Nc6ccc(F)cc6)CC5)cc4F)c3s2)cn1 (centres unmarked) [td32-4P9, 2-(4-(7-(2-fluoro-4-(1-(4-fluorophenyl)carbamoyl)cyclopropane-1-carboxamide)phenoxy)thieno[3,2-b]pyridin-2-yl)-1H-pyrazolyl-1-yl)ethyl isoleucinate]	potent tumor inhibitory effect
NCC(=O)OCCn1cc(-c2cc3nccc(Oc4ccc(NC(=O)C5(C(=O)Nc6ccc(F)cc6)CC5)cc4F)c3s2)cn1 [td32-4P6, 2-(4-(7-(2-fluoro-4-(1-((4-fluorophenyl)carbamoyl)cyclopropane-1-carboxamide)phenoxy)thieno[3,2-b]pyridin-2-yl)-1H-pyrazolyl-1-yl)ethyl glycinate]	moderate inhibitory activity
